Measured values reported in ChEMBL document CHEMBL1140456, “Synthesis and screening of 3-substituted thioxanthen-9-one-10,10-dioxides” (Bioorg Med Chem Lett, 2007).

Molecular target: Breast cancer type 1 susceptibility protein (Homo sapiens, UniProt P38398)
Experiment: Inhibition of BRCA1 assessed as BRCT-BACH1 interaction

Chain of Breast cancer type 1 susceptibility protein (P38398 whole entry): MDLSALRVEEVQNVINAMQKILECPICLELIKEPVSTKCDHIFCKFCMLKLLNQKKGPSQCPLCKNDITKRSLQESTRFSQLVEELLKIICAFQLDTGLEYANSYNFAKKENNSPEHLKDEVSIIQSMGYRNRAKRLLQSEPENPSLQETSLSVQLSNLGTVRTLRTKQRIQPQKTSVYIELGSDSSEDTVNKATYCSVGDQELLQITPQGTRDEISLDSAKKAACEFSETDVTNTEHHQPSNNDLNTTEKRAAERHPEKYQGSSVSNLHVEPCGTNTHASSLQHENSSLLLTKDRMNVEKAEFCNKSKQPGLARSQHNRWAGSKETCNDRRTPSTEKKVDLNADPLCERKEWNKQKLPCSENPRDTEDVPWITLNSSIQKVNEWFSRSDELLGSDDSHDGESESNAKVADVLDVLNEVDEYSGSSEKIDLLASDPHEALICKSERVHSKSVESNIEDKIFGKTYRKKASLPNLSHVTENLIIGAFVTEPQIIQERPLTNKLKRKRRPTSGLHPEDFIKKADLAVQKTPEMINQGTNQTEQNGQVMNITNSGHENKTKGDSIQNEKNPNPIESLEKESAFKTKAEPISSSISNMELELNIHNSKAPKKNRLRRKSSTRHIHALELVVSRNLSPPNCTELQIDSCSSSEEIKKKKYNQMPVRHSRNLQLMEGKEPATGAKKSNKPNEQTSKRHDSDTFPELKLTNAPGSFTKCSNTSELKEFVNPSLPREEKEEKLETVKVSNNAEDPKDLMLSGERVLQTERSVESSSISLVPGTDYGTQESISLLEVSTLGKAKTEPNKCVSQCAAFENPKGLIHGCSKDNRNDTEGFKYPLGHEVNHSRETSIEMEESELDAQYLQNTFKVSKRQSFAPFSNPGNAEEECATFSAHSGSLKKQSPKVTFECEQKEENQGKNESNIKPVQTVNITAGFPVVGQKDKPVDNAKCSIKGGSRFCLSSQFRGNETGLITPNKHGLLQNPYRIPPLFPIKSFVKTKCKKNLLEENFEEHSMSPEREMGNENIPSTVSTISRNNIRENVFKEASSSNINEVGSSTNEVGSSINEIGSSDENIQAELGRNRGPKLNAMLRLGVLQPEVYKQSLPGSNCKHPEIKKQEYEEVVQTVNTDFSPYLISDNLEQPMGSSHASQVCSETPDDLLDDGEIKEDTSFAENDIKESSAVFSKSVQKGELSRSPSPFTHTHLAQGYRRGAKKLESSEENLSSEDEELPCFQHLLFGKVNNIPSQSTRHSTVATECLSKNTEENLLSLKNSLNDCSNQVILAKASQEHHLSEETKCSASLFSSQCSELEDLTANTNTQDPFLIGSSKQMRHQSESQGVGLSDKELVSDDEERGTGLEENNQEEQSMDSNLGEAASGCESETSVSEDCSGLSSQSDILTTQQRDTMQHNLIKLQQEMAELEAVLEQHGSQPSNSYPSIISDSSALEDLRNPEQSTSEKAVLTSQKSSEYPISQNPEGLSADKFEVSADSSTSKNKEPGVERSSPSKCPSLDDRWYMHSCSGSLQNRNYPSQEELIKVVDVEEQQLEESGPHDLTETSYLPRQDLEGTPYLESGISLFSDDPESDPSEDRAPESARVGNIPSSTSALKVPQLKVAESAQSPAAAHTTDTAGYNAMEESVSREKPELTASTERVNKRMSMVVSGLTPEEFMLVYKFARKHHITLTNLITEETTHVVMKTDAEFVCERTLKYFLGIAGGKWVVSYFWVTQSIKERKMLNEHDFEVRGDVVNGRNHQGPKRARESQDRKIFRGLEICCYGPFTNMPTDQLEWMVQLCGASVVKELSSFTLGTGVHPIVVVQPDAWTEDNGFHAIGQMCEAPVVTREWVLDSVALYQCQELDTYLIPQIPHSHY

| Compound | Ki [µM] |
| --- | --- |
| NC(=O)C1CCN(c2ccc3c(c2)S(=O)(=O)c2ccccc2C3=O)CC1 | 30 |
| O=C1c2ccccc2S(=O)(=O)c2cc(N3CCC(Cc4ccccc4)CC3)ccc21 | 38 |
| CC1CCN(c2ccc3c(c2)S(=O)(=O)c2ccccc2C3=O)CC1 | 39 |
